# Non-standard residues stand in square brackets, D forms with d. Residues, ends and D or L forms follow the SMILES beside them. No end group written: not given here. *: point of attachment. Abu = CC[C@H](N)C(=O)O; Acm = CC(=O)NC*
# What was measured:
# [1] = biological target: T1, binding of the HPV-16 E7 protein to the RBG protein (Homo sapiens, UniProt P06400); assay: Binding inhibition assay in vitro: immune precipitation of RBG protein from Hela lysate with radiolabelled HPV-16 E7 (Example 2); conditions: for inhibition of the binding of the HPV E7 protein to the RBG protein (in words): summary statement
# T1 construct: Whole cell lysates of Hela cells were used as a source of human RBG protein; endogenous in cells; host or cells: HeLa whole cell lysate (RB); rabbit reticulocyte lysate, T7 promoter clone (E7)
# T1 sequence (P06400 1-928): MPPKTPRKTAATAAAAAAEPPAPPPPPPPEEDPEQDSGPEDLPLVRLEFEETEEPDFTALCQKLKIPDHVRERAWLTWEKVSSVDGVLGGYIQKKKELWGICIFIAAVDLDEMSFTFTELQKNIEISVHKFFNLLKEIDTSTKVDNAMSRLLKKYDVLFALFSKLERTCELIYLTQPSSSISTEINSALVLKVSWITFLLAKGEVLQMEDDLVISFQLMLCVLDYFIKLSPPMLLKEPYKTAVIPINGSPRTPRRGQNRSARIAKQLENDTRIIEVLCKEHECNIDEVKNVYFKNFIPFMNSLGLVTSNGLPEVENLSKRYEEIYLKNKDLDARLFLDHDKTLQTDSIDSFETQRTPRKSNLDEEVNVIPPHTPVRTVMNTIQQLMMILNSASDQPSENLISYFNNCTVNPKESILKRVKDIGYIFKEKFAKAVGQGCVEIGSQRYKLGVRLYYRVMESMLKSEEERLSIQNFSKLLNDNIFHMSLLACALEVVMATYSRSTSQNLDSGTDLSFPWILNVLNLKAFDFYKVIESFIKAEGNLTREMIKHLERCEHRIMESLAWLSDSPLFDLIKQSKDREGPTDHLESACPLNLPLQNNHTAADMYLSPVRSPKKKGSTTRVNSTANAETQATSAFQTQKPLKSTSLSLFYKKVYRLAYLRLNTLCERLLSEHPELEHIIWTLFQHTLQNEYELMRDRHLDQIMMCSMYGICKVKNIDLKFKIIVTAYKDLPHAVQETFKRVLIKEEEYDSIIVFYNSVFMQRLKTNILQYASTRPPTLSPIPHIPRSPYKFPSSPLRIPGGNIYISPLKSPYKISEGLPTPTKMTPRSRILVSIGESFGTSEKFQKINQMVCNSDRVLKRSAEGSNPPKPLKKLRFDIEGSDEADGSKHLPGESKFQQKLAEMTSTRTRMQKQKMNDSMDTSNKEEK
# Description: Peptide A, Peptide B, and Acetyl-GRP 20-27 were assayed for their abilities to inhibit the binding of the HPV-16 E7 protein to the RBG protein. Binding inhibition assays were carried out in vitro using a modification of the procedure described by N. Dyson et al., Science 243: 934-936 1989. Whole cell lysates of Hela cells were used as a source of human RBG protein. Rabbit reticulocyte cell free lysates that permit transcription and translation of exogenously added DNAs served as a source of HPV-16 E7 protein. The HPV-16 E7 gene was added to the rabbit reticulocyte lysate as a recombinant DNA clone under the control of a T7 promoter and incubated for 60 minutes at 30°C in the presence of radiolabeled methionine to allow transcription of the HPV-16 E7 gene and translation into E7 protein that contained radiolabeled methionine. The Hela cell and rabbit reticulocyte lysates were then mixed and incubated at 4°C for 90 minutes. After further manipulations a murine antibody against the RBG protein was added and incubated at 4°C for 60 minutes. Next, a rabbit anti-mouse IgG antibody and protein A sepharose was added to the reaction mixture in order to immune precipitate the RBG protein. At the same time, the E7 protein that was bound to the RBG protein was also precipitated. After an additional 60 minute incubation at 4°C the precipitated proteins were isolated by centrifugation and examined by polyacrylamide gel electrophoresis. Following electrophoresis, the polyacrylamide gel was dried and exposed to x-ray film. […] This biochemical protocol yields a quantitative estimate of the binding of HPV-16 E7 protein to the RBG protein in vitro.
# These biochemical reactions can be run with or without added synthetic peptides to evaluate the effects of various concentrations of peptides on the binding of the HPV E7 protein to the RBG protein. In our studies, the addition of peptide A to these reaction mixtures at concentrations of 40 uM, 20 uM, or 2 uM caused a reduction in HPV-16 E7 protein binding to the RBG protein of 90%, 90% and 60% respectively. Addition of Peptide B or Acetyl-GRP 20-27 to the reaction mixture at concentrations up to 60 uM had no effect on HPV-16 E7 protein binding to the RBG protein.
# RBG Protein/E7 [2] = biological target: T2, RBG Protein/E7 (Homo sapiens, UniProt P06400); assay: In vitro solution assay for E7/RBG protein complex formation (immunoprecipitation, T24 cell lysates); format: binding; design: Cell lysates used as a source of RBG protein were prepared from human T24 bladder carcinoma cells; endogenous in cells; host or cells: human T24 bladder carcinoma cell lysate
# T2 sequence (P06400 1-928): T1 sequence (P06400 1-928)
# Description: (§1) An in vitro solution assay used for the detection of complex formation between E7 protein and p105-RB has been described by Dyson, et al (30). Cell lysates used as a source of RBG protein were prepared from human T24 bladder carcinoma cells as described (30). C36 and the control antibody Pb416 are monoclonal antibodies directed against RGB protein and SV40 large T protein, respectively. These antibodies were a generous gift from E. Harlow (Cold Spring Harbor Laboratories, Cold Spring Harbor, NY). Immunoprecipitates of E7/RBG protein binding reactions containing serially diluted peptide antagonists were dissolved in 35 µl gel loading buffer (30). Five µl was counted directly in Right Safe (Beckman, Palo Alto, CA.) scintillation cocktail and 25 µl was subjected to sodium dodecyl sulphate poly-acrylamide gel electrophoresis. Gels were dried and exposed to Kodak X-AR film at -70 °C overnight. In order to more rapidly assay large numbers of samples and more easily quantitate the binding results, we developed a plate binding assay for the detection of E7/RBG protein association. Purified recombinant E7 was resuspended in 0.1 M sodium carbonate, pH 9.5, at 1 ng/µl. Fifty microliters of this solution was placed into each well of a polyvinyl chloride microtiter plate (COSTAR 2596, Cambridge, MA.). The plate was gently agitated for 18 hours at 4 °C. The E7 solution was aspirated off and 100 µl of plate blocking buffer (PBB) [50mM Hepes 7.0, 250 mM sodium chloride, 0.1% NP4O, 0.5% (w/v) pigskin gelatin, and 0.02% sodium azide] was added per well. The buffer was removed and the plate was washed three times in the above buffer without the gelatin (PB). Five femtomoles of ³⁵S-methionine (Amersham 1100 Ci/mmole, Arlington Heights, IL.) labeled RBG protein prepared in a rabbit reticulocyte lysate was diluted in PB buffer containing various peptide antagonists to a final volume of 50 µl and added to the E7 treated plate. The plate was again incubated at 4 °C with agitation for 1 hour after which the solution was aspirated and each well washed five times with PB. The top of the plate was removed using a hot wire cutting apparatus (D. Lee, Sunnyvale, CA). Each well was placed in 3 ml of Ready Safe scintillation cocktail (Beckman, Palo Alto, CA.) and counted for 1 minute.
# (§2) IC₅₀ values represent the average of at least two experiments in which each concentration of inhibitor was tested in triplicate. The variation between experiments was less than 10%. The 50% inhibition concentrations are micromolar. ND = not determined.
# RBG Protein/E7 [3] = biological target: T2, RBG Protein/E7; assay: Plate binding assay for E7/RBG protein association (E7-coated plate, 35S-labelled RBG protein); design: made in house; host or cells: rabbit reticulocyte lysate (RB, in vitro translation)
# Description: as §1, §2
# [4] = average of at least two experiments, triplicate, read-out: SOLUTION ASSAY RBG Protein/E7 IC₅₀
# [5] = average of at least two experiments, triplicate, read-out: PLATE ASSAY RBG Protein/E7 IC₅₀
Molecule,IC50 (RBG Protein/E7 [2]; [4]) [nM],IC50 (RBG Protein/E7 [3]) [nM],IC50 (RBG Protein/E7 [3]; [5]) [nM],further results
"CSCC[C@H](NC(=O)[C@H](CC(C)C)NC(=O)[C@H](Cc1c[nH]cn1)NC(=O)CNC(=O)[C@@H](NC(=O)[C@H](C)NC(=O)[C@H](Cc1c[nH]c2ccccc12)NC(=O)[C@H](Cc1c[nH]cn1)NC(C)=O)C(C)C)C(N)=O [Acetyl-GRP 20-27, reference compound]",–,–,–,effect on HPV-16 E7 protein binding to the RBG protein ([1]; concentrations up to 60 uM): no effect; inhibition of the binding of the HPV E7 protein to the RBG protein (in words) [1]: can not inhibit
"CC[C@H](NC(=O)[C@H](Cc1ccc(O)cc1)NC(=O)[C@H](CC(C)C)NC(=O)[C@H](CC(=O)O)NC(=O)[C@@H](N)[C@@H](C)O)C(=O)N[C@@H](Cc1ccc(O)cc1)C(=O)N[C@@H](CCC(=O)O)C(=O)N[C@@H](CCC(N)=O)C(=O)N[C@@H](CC(C)C)C(=O)N[C@@H](CC(N)=O)C(=O)N[C@@H](CC(=O)O)C(=O)N[C@@H](CO)C(=O)N[C@@H](CO)C(N)=O [Peptide 17, [ABU²⁴]-E7-(20-32)-AMIDE] (H-TDLY[Abu]YEQLNDSS-NH2)",20000,–,–,–
"CC(=O)NCSC[C@H](NC(=O)[C@H](Cc1ccc(O)cc1)NC(=O)[C@H](CC(C)C)NC(=O)[C@H](CC(=O)O)NC(=O)[C@@H](N)[C@@H](C)O)C(=O)N[C@@H](Cc1ccc(O)cc1)C(=O)N[C@@H](CCC(=O)O)C(=O)N[C@@H](CCC(N)=O)C(=O)N[C@@H](CC(C)C)C(=O)N[C@@H](CC(N)=O)C(=O)N[C@@H](CC(=O)O)C(=O)N[C@@H](CO)C(=O)N[C@@H](CO)C(N)=O [Peptide 18, [ACM²⁴]-E7-(20-32)-AMIDE] (H-TDLYC(Acm)YEQLNDSS-NH2)",–,–,–,IC50 (RBG Protein/E7 [2]): > 100000 nM
"Ac-DLYCYEQLN-NH2 [Peptide 14, N-Ac-E7-(21-29)-AMIDE]",–,40,–,IC50 (RBG Protein/E7 [2]): 1000 nM
"Ac-LYCYEQLNDSS-NH2 [Peptide 15, N-Ac-E7-(22-32)-AMIDE]",10000,–,25000,–
"Ac-LYCYEQLNDSS-NH2 [Peptide C, Ac-Leu-Tyr-Cys-Tyr-Glu-Gln-Leu-Asn-Asp-Ser-Ser-NH₂]",–,–,–,concentration at which HPV-16 E7 protein binding to the RBG protein was inhibited ([1]; concentrations as low as): ≤ 1 µM
"Ac-TDLYCYEQLN [Peptide 12, N-Ac-E7-(20-29)-ACID]",–,60,–,–
"Ac-TDLYCYEQLN-NH2 [Peptide 13, N-Ac-E7-(20-29)-AMIDE]",–,80,–,–
"DLYCYEQLNDSS-NH2 [Peptide 10, E7-(21-32)-AMIDE]",–,11400,–,IC50 (RBG Protein/E7 [2]): 20000 nM
"E7-(14-29)-AMIDE (DLQPETTDLYCYEQLN-NH2; UniProt P03129 14-29, looked up, fragment) [Peptide 7]",–,–,80,–
"E7-(18-29)-AMIDE (ETTDLYCYEQLN-NH2; UniProt P03129 18-29, looked up, fragment) [Peptide 8]",400,–,60,–
"TDLFCYEQLN-NH2 [Peptide 19, [Phe²³]-E7-(20-29)-AMIDE]",1000,–,600,–
"TDLYCFEQLN-NH2 [Peptide 20, [Phe²⁵]-E7-(20-29)-AMIDE]",15000,–,> 50000,–
"TDLYCYE-NH2 [Peptide 6, E7-(20-26)-AMIDE]",100000,–,3300,–
"TDLYCYENLND-NH2 [Peptide 23, [Asn²⁷]-E7-(20-30)-AMIDE]",1000,–,–,–
"TDLYCYEQ-NH2 [Peptide 5, [Gln27]]-E7-(20-27)-AMIDE]",50000,–,9100,–
"TDLYCYEQL-NH2 [Peptide 4, E7-(20-28)-AMIDE]",5000,–,700,–
"TDLYCYEQLN [Peptide 11, E7-(20-29)-ACID]",–,80,–,–
"TDLYCYEQLN-NH2 [Peptide 9, E7-(20-29)-AMIDE]",–,90,–,IC50 (RBG Protein/E7 [2]): 1000 nM
"TDLYCYEQLND-NH2 [Peptide 2, E7-(20-30)-AMIDE]",–,80,–,IC50 (RBG Protein/E7 [2]): 1000 nM
"TDLYCYEQLNDSS-NH2 [Peptide 1, E7-(20-32)-AMIDE]",–,50,–,IC50 (RBG Protein/E7 [2]): 1000 nM
"TDLYCYEQLNDSS-NH2 [Peptide A, Thr-Asp-Leu-Tyr-Cys-Tyr-Glu-Gln-Leu-Asn-Asp-Ser-Ser-NH₂]",–,–,–,reduction in HPV-16 E7 protein binding to the RBG protein ([1]; peptide at 2 uM): 60%; reduction in HPV-16 E7 protein binding to the RBG protein ([1]; peptide at 20 uM): 90%; reduction in HPV-16 E7 protein binding to the RBG protein ([1]; peptide at 40 uM): 90%; inhibition of the binding of the HPV E7 protein to the RBG protein (in words) [1]: inhibited
"TDLYCYQQL-NH2 [Peptide 21, [Gln²⁶]-E7-(20-28)-AMIDE]",> 100000,–,–,–
"TDLYSYEQLNDSS-NH2 [Peptide 16, [Ser²⁴]-E7-(20-32)-AMIDE]",40000,–,–,–
"TNLYCYEQL-NH2 [Peptide 22, [Asn²¹]-E7-(20-28)-AMIDE]",> 100000,–,–,–

# Source: patent EP0412762A2, “Peptide inhibitors of human papilloma virus protein binding to retinoblastoma gene proteins” (priority 1989, dated 1991)
